# Several values for one entry are separate records, joined by “and”; a condition that tells them apart may be missing. Identical values can stand only once. Like-named read-outs stand apart in the source and are kept apart here.
# Columns and labels:
# [1] = biological target: T1, wild-type mouse Pgp (MDR3) (Mus musculus, UniProt P21447)
# Description: Acrylamide quenching of protein fluorescence was used to probe drug-induced Pgp conformational changes indirectly. For this assay, a solution containing 1 µM of Pgp reconstituted into liposomes was titrated with acrylamide. The preparation was carried out in Chifflet buffer (pH 7.4) supplemented with 2 mM DTT. The assay was performed both in the presence and absence of ligand(s). […] The fluorescence intensities were corrected for dilution, background, and inner filter effects using Equation (3). A Stern–Volmer plot of Fo(corrected)/F(corrected) versus the concentration of acrylamide added was generated. The slope of the curve, an indicator of the degree of quenching, is related to the Stern–Volmer’s constant (Ksv) by Equation (4). (4) Focorrected/Fcorrected=1+KsvQ where [Q] is the concentration of the quencher, acrylamide.
# [2] = biological target: T1, wild-type mouse Pgp (MDR3); remark: listed apart in the source
# Description: Atomic force microscopy (AFM) has been adapted for analyzing protein dynamics and structure, which has enabled the determination of conformational changes induced by ligands. In this study, Pgp reconstituted into liposomes was diluted in imaging buffer (20 mM HEPES, 100 mM NaCl, and 5 mM MgCl2; pH 7.4) to 100 nM. About 90 µL droplets of the diluted Pgp solution were deposited on cleaned […] (Corning, Corning, NY, USA), followed by 30 min of incubation at 25 °C. This step caused the proteoliposomes to rupture, forming a planar lipid bilayer on top of the mica surface. The samples were rinsed at least five times using the buffer exchange technique, wherein 90 µL of buffer was utilized. Next, AFM imaging of the EC-side and C-side domains of Pgp protrusions above the lipid bilayer was performed as previously described. For each of the selected CPTs used in this study, AFM imaging of the ligand-free Pgp (apoPgp) was performed first, then ligand was added, and imaging was repeated in nominally the same area. […] Only membrane-external protrusions that could be positively assigned as either EC or C-side domain features of Pgp were analyzed. All the AFM images were obtained in an imaging buffer at about 30 °C in tapping mode with biolever mini tips (BL-AC40TS, Olympus, Tokyo, Japan) installed on a commercial instrument (Asylum Research Cypher, Santa Barbara, CA, USA). The tip-sample force was kept below 100 pN to minimize the probability of protein distortion. The AFM images were analyzed with custom software written in Igor Pro 7 (Wavemetrics, Portland, OR, USA), as described previously. Kernel density estimation with Epanechnikov kernels in Igor Pro 7 software was used to generate smoothed histograms for further analysis. The histograms were fitted with a summation of Gaussian distributions. The Bayesian information criterion was used to select the best model after fitting with 1–5 Gaussian distributions as described previously (see Supporting Information).
# [3] = second-line chemotherapy, versus TPT; cited from earlier work
# [4] = system: human tumor xenograft models; details: different human tumor xenograft models, versus TPT; cited from earlier work
# [5] = biological target: T1, wild-type mouse Pgp (MDR3); details: for Decrease of protein fluorescence from the initial fluorescence: ex 295 nm; for Decrease of protein fluorescence: saturating AMPPNP
# [6] = biological target: T1, wild-type mouse Pgp (MDR3); remark: listed apart in the source
# Description: For a molecule that binds to the receptor, only the protons within a distance of 5 Å from the saturated protein receive noticeable saturation transfer. The saturation transferred from the receptor to the bound ligands can be detected upon dissociation as a saturation transfer difference (STD). The observed degree of saturation transferred inversely correlates with the distance between the ligand and the receptor and reflects the degree of interaction. Due to the high lipophilicity of most Pgp substrates, there is a high possibility of non-specific interactions between the ligands and liposomes used, which can interfere with the STD NMR spectrum observed. The STD NMR spectrum of the drug in the presence of liposomes was performed and subtracted from the STD ^1H NMR spectrum of the ligand in the presence of proteins reconstituted into liposomes to yield a STDD. […] All NMR experiments were carried out at 25 °C (unless otherwise stated) on a Varian INOVA 600 MHz NMR spectrometer installed with a 1H-detect broadband probe {HX}.
# The control samples were identically prepared with liposomes instead of Pgp reconstituted in liposomes. […] The difference between the on-resonance and the off-resonance created the STD ^1H NMR spectrum. A control experiment consisting of liposomes and drugs was obtained under identical conditions and subtracted from the ^1H STD NMR spectrum of the reconstituted Pgp sample with the drug to generate the STDD ^1H NMR spectrum. […] The STDD amplification factor was calculated using Equation (5) below. (5) STDD Amplication Factor=l/PΔl/Io where Io is the amplitude of the ^1H NMR peaks, l is the ligand concentration, and P is the protein concentration.
# [7] = versus TPT; cited from earlier work
# [8] = biological target: T1, wild-type mouse Pgp (MDR3); test: biochemical
# [9] = system: LS513 cells; details: LS513 cells treated with BCRP and MRP2 inhibitors, versus SN-38; cited from earlier work
# [10] = 800 µM drug, 1 µM Pgp in liposomes, 25 °C
# T1 sequence (P21447 whole entry): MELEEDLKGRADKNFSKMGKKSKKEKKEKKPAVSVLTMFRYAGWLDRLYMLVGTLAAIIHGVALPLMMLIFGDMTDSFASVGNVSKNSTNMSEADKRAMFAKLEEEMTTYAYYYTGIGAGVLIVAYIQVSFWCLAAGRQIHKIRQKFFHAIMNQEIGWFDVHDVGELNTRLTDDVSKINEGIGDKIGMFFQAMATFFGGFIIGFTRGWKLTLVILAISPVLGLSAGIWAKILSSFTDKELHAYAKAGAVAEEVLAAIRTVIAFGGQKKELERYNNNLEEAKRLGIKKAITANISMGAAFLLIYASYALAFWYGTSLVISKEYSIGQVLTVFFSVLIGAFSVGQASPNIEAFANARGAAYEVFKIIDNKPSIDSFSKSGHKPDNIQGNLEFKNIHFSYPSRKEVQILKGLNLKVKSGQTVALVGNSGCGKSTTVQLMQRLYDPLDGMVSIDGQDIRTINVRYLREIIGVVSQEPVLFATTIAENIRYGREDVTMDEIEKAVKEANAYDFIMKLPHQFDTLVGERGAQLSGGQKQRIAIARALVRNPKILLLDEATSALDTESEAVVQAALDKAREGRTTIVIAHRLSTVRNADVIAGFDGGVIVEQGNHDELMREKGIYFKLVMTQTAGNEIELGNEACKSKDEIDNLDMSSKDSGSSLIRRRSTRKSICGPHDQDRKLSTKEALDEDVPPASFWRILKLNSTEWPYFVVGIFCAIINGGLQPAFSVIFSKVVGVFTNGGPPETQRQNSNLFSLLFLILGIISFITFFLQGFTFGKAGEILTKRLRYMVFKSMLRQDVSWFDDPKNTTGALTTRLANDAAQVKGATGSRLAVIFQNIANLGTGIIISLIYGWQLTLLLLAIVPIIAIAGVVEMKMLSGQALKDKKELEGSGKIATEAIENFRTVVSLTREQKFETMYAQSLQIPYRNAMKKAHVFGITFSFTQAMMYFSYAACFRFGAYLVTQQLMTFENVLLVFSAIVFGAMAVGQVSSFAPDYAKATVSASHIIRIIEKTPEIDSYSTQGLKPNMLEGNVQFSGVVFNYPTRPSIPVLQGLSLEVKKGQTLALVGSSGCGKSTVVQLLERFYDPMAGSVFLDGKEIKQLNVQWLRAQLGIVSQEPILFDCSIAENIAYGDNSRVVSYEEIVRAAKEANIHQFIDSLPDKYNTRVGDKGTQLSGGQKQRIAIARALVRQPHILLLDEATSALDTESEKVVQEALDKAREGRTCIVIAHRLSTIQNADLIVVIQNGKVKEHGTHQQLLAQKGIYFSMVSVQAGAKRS
smiles,measurement,setting,value
"Nc1ncnc2c1ncn2[C@@H]1O[C@H](COP(=O)([O-])OP(=O)([O-])NP(=O)([O-])[O-])[C@@H](O)[C@H]1O.[Li+].[Li+].[Li+].[Li+] [AMPPNP, Adenosine 5′-(β,γ-imido)triphosphate lithium salt]",Ksv of acrylamide quenching of Pgp fluorescence,"[1]; Pgp with saturating (3.2 mM) AMPPNP alone, no CPT",0.84 ± 0.07 M⁻¹
"CCc1c2c(nc3ccc(OC(=O)N4CCC(N5CCCCC5)CC4)cc13)-c1cc3c(c(=O)n1C2)COC(=O)[C@]3(O)CC [IRT, Irinotecan]",C-side height of tallest Pgp population in presence of drug,"[2]; 100 µM drug, apo 76 ± 9 Å",70 ± 10 Å
same,Survival rate of patients compared with TPT,[3],higher survival rate
same,Decrease in the Ksv value of apoPgp (acrylamide quenching),[1],~ 20%
same,Ksv of acrylamide quenching of Pgp fluorescence,[1],0.83 ± 0.05 and 0.83 ± 0.05 M^−1
same,Efficacy compared with TPT,[4],greater efficacy
same,Change of affinity for Pgp in the presence of AMPPNP,[5],diminished by over threefold
same,Stern–Volmer constant (Ksv) of drug-induced Pgp fluorescence quenching,[5],0.07 ± 0.01 µM⁻¹
same,Highest STDD amplification factor,[6],~81
"CC(=O)N[C@@H](Cc1c[nH]c2ccccc12)C(N)=O [NATA, N-acetyl-L-tryptophanamide]",Ksv of acrylamide quenching of NATA fluorescence,"[1]; positive control, fully solvent-exposed tryptophan, no Pgp",15.43 ± 0.37 M⁻¹
CCc1c2c(nc3ccc(O)cc13)-c1cc3c(c(=O)n1C2)COC(=O)[C@]3(O)CC [SN-38],Probability density difference (∆PD) of tallest population relative to apo,[2]; 30 µM drug,−1.08 × 10^7
same,C-side height of tallest Pgp population in presence of drug,"[2]; 30 µM drug, apo 84 ± 5 Å",78 ± 7 Å
same,Fold higher cellular retention than TPT,[7],> 2 fold
same,Ksv of acrylamide quenching of Pgp fluorescence,"[1]; 30 µM drug, 3.2 mM AMPPNP",0.81 ± 0.08 M⁻¹
same,Ksv of acrylamide quenching of Pgp fluorescence,"[1]; 30 µM drug, absence of AMPPNP, apoPgp 1.58 ± 0.03",1.12 ± 0.02 M⁻¹
same,Decrease in the Ksv value of apoPgp (acrylamide quenching),"[1]; 30 µM drug, no AMPPNP (Figure 4)",~ 28%
same,Kd,[8]; absence of AMPPNP,3.53 ± 1.14 µM
same,Kd,[8]; saturating (3.2 mM) AMPPNP,13.2 ± 4.23 µM
same,Decrease of protein fluorescence from the initial fluorescence,"[5]; 60 µM drug, absence of AMPPNP",~40.6%
same,Decrease of protein fluorescence,[5]; 60 µM drug,38.8%
same,Stern–Volmer constant (Ksv) of drug-induced Pgp fluorescence quenching,[5]; absence of AMPPNP,0.28 ± 0.09 µM⁻¹
same,Change of affinity for Pgp in the presence of AMPPNP,[5]; presence vs absence of AMPPNP,diminished by over threefold
same,Stern–Volmer constant (Ksv) of drug-induced Pgp fluorescence quenching,[5]; saturating (3.2 mM) AMPPNP,0.076 ± 0.02 µM⁻¹
"CC[C@@]1(O)C(=O)OCc2c1cc1n(c2=O)Cc2cc3c(CN(C)C)c(O)ccc3nc2-1 [TPT, Topotecan]",Probability density difference (∆PD) of tallest population relative to apo,[2]; 60 µM drug,4.11 × 10^7
same,C-side height of tallest Pgp population in presence of drug,"[2]; 60 µM drug, apo 74 ± 9 Å",75 ± 7 Å
same,Ksv of acrylamide quenching of Pgp fluorescence,"[1]; 60 µM drug, 3.2 mM AMPPNP",0.71 ± 0.04 M⁻¹
same,Ksv of acrylamide quenching of Pgp fluorescence,"[1]; 60 µM drug, absence of AMPPNP, apoPgp 1.58 ± 0.03",0.78 ± 0.06 M⁻¹
same,Decrease in the Ksv value of apoPgp (acrylamide quenching),"[1]; 60 µM drug, no AMPPNP (Figure 4)",~50%
same,Kd,[8]; absence of AMPPNP,2.47 ± 0.57 µM
same,Kd,[8]; saturating (3.2 mM) AMPPNP,16 ± 3.27 µM
same,Decrease of protein fluorescence from the initial fluorescence,"[5]; 100 µM drug, absence of AMPPNP",approximately 71.6%
same,Decrease of protein fluorescence,[5]; 100 µM drug,61.0%
same,Stern–Volmer constant (Ksv) of drug-induced Pgp fluorescence quenching,[5]; absence of AMPPNP,0.41 ± 0.09 µM⁻¹
same,Change of affinity for Pgp in the presence of AMPPNP,[5]; presence vs absence of AMPPNP,diminished by over threefold
same,Stern–Volmer constant (Ksv) of drug-induced Pgp fluorescence quenching,[5]; saturating (3.2 mM) AMPPNP,0.06 ± 0.01 µM⁻¹
same,Average STDD amplification factor,[6]; [10],around 45
same,Highest STDD amplification factor,[6]; [10],approximately 133
same,"Relative efflux rate, times higher than SN-38",[9],approximately 4 times

# From article PMC10671697, “Drug-Induced Conformational Dynamics of P-Glycoprotein Underlies the Transport of Camptothecin Analogs” (International Journal of Molecular Sciences, 2023)
